Assay results: US20220117938A1, “COMBINATON THERAPY WITH A DON PRODRUG AND AN IMMUNE CHECKPOINT INHIBITOR” (DRACEN PHARMACEUTICALS, INC., priority 2019, published 2022)

Test system: CT26 tumors
Test: CT26 model, Compound 1 5-day ON 2-day OFF with and without anti-PD-1 (Example 2B, similar experiment, Tables 2B-5/2B-6)
Assay type: in vivo, mice
Conditions: for Cures / Median Survival: 5-day ON 2-day OFF; for Mean Tumor Vol / TGI: Day 15; for BWC: mouse, in vivo
[1] = 0.15 mg/kg 5-day ON 2-day OFF x 4 cycles
[2] = 0.5 mg/kg 5-day ON 2-day OFF x 4 cycles
[3] = 1.4 mg/kg 5-day ON 2-day OFF x 4 cycles

CC(=O)N[C@@H](Cc1c[nH]c2ccccc12)C(=O)N[C@@H](CCC(=O)C=[N+]=[N-])C(=O)OC(C)C [Compound 1, Isopropyl (S)-2-((S)-2-acetamido-3-(1H-indol-3-yl)propanamido)-6-diazo-5-oxohexanoate]
Cures (Compound 1 0.15 mg/kg): 0%
Median Survival (Compound 1 0.15 mg/kg): 26 days
Cures (Compound 1 0.5 mg/kg): 0%
Median Survival (Compound 1 0.5 mg/kg): 36 days
Cures (Compound 1 1.4 mg/kg): 0%
Median Survival (Compound 1 1.4 mg/kg): 37 days
Mean Tumor Vol [1]: 188 ± 29 mm^3
TGI [1]: 76%
Mean Tumor Vol [2]: 150 ± 21 mm^3
TGI [2]: 88%
Mean Tumor Vol [3]: 106 ± 16 mm^3
TGI [3]: 91%
BWC (0.15 mg/kg): 7%
BWC (0.5 mg/kg): 1.4%
BWC (1.4 mg/kg): −11%
